From patent US12059397B2 (METIMEDI PHARMACEUTICALS CO., LTD., priority 2016, dated 2024)

Tests used:
cancer cells [1] = settings: cited from earlier work
HCT116 cells = assay: In vivo liver metastasis after intra-splenic injection; design: species or system Mice; settings: subcutaneous injection twice a day for 3 weeks; FIG. 11
Method: Cells were maintained in RPMI-1640 medium (Welgene, Daegu, South Korea) supplemented with 10% fetal bovine serum (Welgene, Daegu, South Korea), 100 IU/ml penicillin, and 100 μg/ml streptomycin (Welgene, Daegu, South Korea) in a humidified atmosphere of 5% CO2, at 37° C. Calcium lactate (CaLa) was purchased from Sigma-Aldrich (St Louis, MO, USA).
Mice were anesthetized with a 2% isoflurane. 5×10^6 of HCT116 cells were suspended in the 100 μL phosphate buffered saline for one injection. A small left abdominal flank incision was made and the spleen was exteriorized for the intra-splenic injection. The prepared cells were injected into the spleen with a 30-gauge needle. To prevent tumor cell leakage and bleeding, a cotton swab was held over the site of injection for 1 min. The injected spleen was returned to the abdomen and the wound was sutured with 6-0 black silk.

cancer cell lines = settings: cited from earlier work
cancer cells [2] = settings: in vivo; cited from earlier work
[3] = test system: Human colorectal cancer cells; assay: In vivo efficacy of long-acting formulation, flank xenograft; design: species or system Balb/c nude mice; settings: 2 mg/kg subcutaneously B.I.D. for 21 days; FIG. 8
Method: Human colorectal cancer cells (5×10^6) were transplanted to the flank of Balb/c nude mice. […] Group 2: […] Group 3: […] Group 4: […] Tumor volume was measured 3 times per week until the end of experiment and was recorded by calculating minimum (M) and maximum (L) linear size of the tumors (L×M^2/2). Tumor weight was measured after autopsy on the final day of experiment. Tumor mass was sectioned to 5 μm and then stained with hematoxylin and eosin for histological analysis.

[4] = Stability of calcium lactate in water and acidic conditions; type: physicochemical
Description: However, the drug is very unstable in water, especially under acidic conditions, and rapidly degraded. Therefore, it is difficult for this drug to show pharmaceutical efficacy with a general oral formulation because it is readily decomposed in the acidic environment of the stomach upon oral administration. Calcium lactate is also not absorbed when it reaches the large intestines because it is destroyed by enzymes present in the large intestine.

CC(O)C(=O)[O-].CC(O)C(=O)[O-].[Ca+2] (stereo not shown) [calcium lactate]
levels of growth, metastasis (migration) and tube formation of the cancer cells (cancer cells [1]): decreased | levels of lactate, LDH-B, pyruvate, PDH and α-KG in cells (cancer cells [1]): increased | levels of β-catenin, PARP, HIF-1α and VEGF in cells (cancer cells [1]): decreased | inflammatory response in developed tumor (HCT116 cells): induced | liver metastasis as compared to the control (HCT116 cells): suppressed | anticancer effect in combination with conventional radiation (cancer cell lines; decreased amount of radiation): equivalent anticancer effect | anticancer effect in combination with well-known anticancer drugs (cancer cell lines; decreased concentration of the anticancer drugs): higher anticancer effect | growth of cancer cells in animal models (cancer cells [2]): suppressed | tumor size versus control group [3]: clearly smaller than the control group | stability in water, especially under acidic conditions [4]: very unstable
